This passage reports Ki results from patent publication US9029364B2, “2,5-disubstituted thiomorpholine orexin receptor antagonists” (Merck Sharp & Dohme Corp., priority 2011, dated 2015).

SMILES strings stand for the structures.

In the test the target is human orexin-2 receptor (Homo sapiens (Human), UniProt O43614). The experiment in a line: radioligand binding assay, orexin-2 receptor (hOX2 Bind hKi). The note with it: membranes from CHO cells expressing OX2 receptor. The method, then: In a typical experiment the OX1 and OX2 receptor antagonistic activity of the compounds of the present invention was determined in accordance with the following experimental method. For intracellular calcium measurements, Chinese hamster ovary (CHO) cells expressing the rat orexin-1 receptor or the human orexin-2 receptor, are grown in Iscove's modified DMEM containing 2 mM L-glutamine, […], 1% hypoxanthine-thymidine supplement, 100 U/ml penicillin, 100 μg/ml streptomycin and 10% heat-inactivated fetal calf serum (FCS). The cells are seeded at 20,000 cells/well into Becton-Dickinson black 384-well clear bottom sterile plates coated with poly-D-lysine. All reagents were from GIBCO-Invitrogen Corp. The seeded plates are incubated overnight at 37° C. and 5% CO2. Ala-6,12 human orexin-A as the agonist is prepared as a 1 mM stock solution in 1% bovine serum albumin (BSA) and diluted in assay buffer (HBSS containing 20 mM HEPES, 0.1% BSA and 2.5 mM probenecid, pH7.4) for use in the assay at a final concentration of 70 pM. Test compounds are prepared as 10 mM stock solution in DMSO, then diluted in 384-well plates, first in DMSO, then assay buffer. On the day of the assay, cells are washed 3 times with 100 μl assay buffer and then incubated for 60 min (37° C., 5% CO2) in 60 μl assay buffer containing 1 μM Fluo-4AM ester, 0.02% pluronic acid, and 1% BSA. The dye loading solution is then aspirated and cells are washed 3 times with 100 μl assay buffer. 30 μl of that same buffer is left in each well. Within the Fluorescent Imaging Plate Reader (FLIPR, Molecular Devices), test compounds are added to the plate in a volume of 25 μl, incubated for 5 min and finally 25 μl of agonist is added. Fluorescence is measured for each well at 1 second intervals for 5 minutes and the height of each fluorescence peak is compared to the height of the fluorescence peak induced by 70 pM Ala-6,12 orexin-A with buffer in place of antagonist. For each antagonist, IC50 value (the concentration of compound needed to inhibit 50% of the agonist response) is determined. Alternatively, compound potency can be assessed by a radioligand binding assay (described in Bergman et. al. Bioorg. Med. Chem. Lett. 2008, 18, 1425-1430) in which the inhibition constant (Ki) is determined in membranes prepared from CHO cells expressing either the OX1 or OX2 receptor. The intrinsic orexin receptor antagonist activity of a compound which may be used in the present invention may be determined by these assays.
human orexin-2 receptor, sequence (O43614 whole entry): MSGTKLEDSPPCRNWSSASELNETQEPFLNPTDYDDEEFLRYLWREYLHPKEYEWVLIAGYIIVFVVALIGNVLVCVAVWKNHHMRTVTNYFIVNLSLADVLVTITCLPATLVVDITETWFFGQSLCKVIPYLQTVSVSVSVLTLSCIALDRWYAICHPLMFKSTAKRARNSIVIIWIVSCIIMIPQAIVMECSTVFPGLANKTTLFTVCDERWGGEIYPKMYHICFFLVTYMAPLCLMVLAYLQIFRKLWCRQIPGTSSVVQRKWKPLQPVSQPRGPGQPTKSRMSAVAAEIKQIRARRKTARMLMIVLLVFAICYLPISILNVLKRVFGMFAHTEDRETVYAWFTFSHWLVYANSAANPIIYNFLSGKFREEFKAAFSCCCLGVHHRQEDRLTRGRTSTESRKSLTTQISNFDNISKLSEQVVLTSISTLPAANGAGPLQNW
The following tables show representative data for the compounds of the Examples as orexin receptor antagonists as determined by the foregoing assays wherein the hOX2 Ki is a measure of the ability of the test compound to inhibit the action of the human orexin-2 receptor and the hOX1R is a measure of the ability of the test compound to inhibit the action of the rat orexin-1 receptor.

`Cc1ccc(-n2nccn2)c(C(=O)N2C[C@H](COc3ccc(F)cn3)SC[C@H]2C)c1` [Example 1, [(2R,5R)-2-{[(5-Fluoropyridin-2-yl)oxy]methyl}-5-methylthiomorpholin-4-yl][5-methyl-2-(2H-1,2,3-triazol-2-yl)phenyl]methanone] came in with an inhibition constant (Ki) of 0.38 nM. That is a sub-nanomolar value.

Regarding `C[C@@H]1CS[C@@H](COc2ccccn2)CN1C(=O)c1ccccc1-n1nccn1` [Example 2, (2R,5R)-5-methyl-2-[(pyridin-2-yloxy)methy1]-4-{[2-(2H-1,2,3-triazol-2-yl)phenyl]carbonyl} thiomorpholine], affinity was put at a Ki of 15.3 nM.

Molecule `C[C@@H]1CS[C@@H](COc2ccc(F)cn2)CN1C(=O)c1ccccc1-n1nccn1` [Example 3, (2R,5R)-2-{[(5-fluoropyridin-2-yl)oxy]methyl}-5-methy1-4-{[2-(2H-1,2,3-triazol-2-yl)phenyl]carbonyl} thiomorpholine] showed a Ki of 0.9 nM.

As to `Cc1ccc(OC[C@H]2CN(C(=O)c3ccccc3-n3nccn3)[C@H](C)CS2)nc1` [Example 4, (2R,5R)-5-methyl-2-{[(5-methylpyridin-2-yl)oxy]methyl}-4-{[2-(2H-1,2,3-triazol-2-yl)phenyl]carbonyl} thiomorpholine], the Ki is 9.7 nM.

As to `C[C@@H]1CS[C@@H](COc2ccc(Cl)cn2)CN1C(=O)c1ccccc1-n1nccn1` [Example 5, (2R,5R)-2-{[(5-chloropyridin-2-yl)oxy]methyl}-5-methyl-4-{[2-(2H-1,2,3-triazol-2-yl)phenyl]carbonyl} thiomorpholine], the Ki turned out to be 1.7 nM.

`C[C@@H]1CS[C@@H](COc2ccc(C#N)cn2)CN1C(=O)c1ccccc1-n1nccn1` [Example 6, 6-{[(2R,5R)-5-methy1-4-{[2-(2H-1,2,3-triazol-2-yl)phenyl]carbonyl}thiomorpholin-2-yl]methoxy}pyridine-3-carbonitrile] gave a Ki of 47 nM.

In the case of `C[C@@H]1CS[C@@H](COc2ccc(C(F)(F)F)cn2)CN1C(=O)c1ccccc1-n1nccn1` [Example 7, (2R,5R)-5-methyl-4-{[2-(2H-1,2,3-triazol-2-yl)phenyl]carbonyl}-2-({[5-(trifluoromethyl)pyridin-2-yl]oxy}methyl)thiomorpholine], the Ki is 66 nM.

With `C[C@@H]1CS[C@@H](COc2ncccc2Cl)CN1C(=O)c1ccccc1-n1nccn1` [Example 8, (2R,5R)-2-{[(3-chloropyridin-2-yl)oxy]methyl}-5-methyl-4-{[2-(2H-1,2,3-triazol-2-yl)phenyl]carbonyl} thiomorpholine], the Ki came out at 2.5 nM.

For `C[C@@H]1CS[C@@H](COc2ncccc2C#N)CN1C(=O)c1ccccc1-n1nccn1` [Example 9, 2-{[(2R,5R)-5-methy1-4-{[2-(2H-1,2,3-triazol-2-yl)phenyl]carbonyl}thiomorpholin-2-yl]methoxy}pyridine-3-carbonitrile], the affinity corresponds to a Ki of 150 nM.

`Cc1ccnc(OC[C@H]2CN(C(=O)c3ccccc3-n3nccn3)[C@H](C)CS2)c1` [Example 10, (2R,5R)-5-methyl-2-{[(4-methylpyridin-2-yl)oxy]methyl}-4-{[2-(2H-1,2,3-triazol-2-yl)phenyl]carbonyl} thiomorpholine] came in with an inhibition constant (Ki) of 192 nM.

On to `C[C@@H]1CS[C@@H](COc2ncccn2)CN1C(=O)c1ccccc1-n1nccn1` [Example 11, (2R,5R)-5-methyl-2-[(pyrimidin-2-yloxy)methy1]-4-{[2-(2H-1,2,3-triazol-2-yl)phenyl]carbonyl} thiomorpholine], for which the inhibitory constant (Ki) is over 4650 nM.

The molecule `Cc1nc(OC[C@H]2CN(C(=O)c3ccccc3-n3nccn3)[C@H](C)CS2)ncc1Cl` [Example 12, (2R,5R)-2-{[(5-chloro-4-methylpyrimidin-2-yl)oxy]methyl}-5-methyl-4-{[2-(2H-1,2,3-triazol-2-yl)phenyl]carbonyl} thiomorpholine] yielded a Ki of 32 nM.

Molecule `Cc1cnc(OC[C@H]2CN(C(=O)c3ccccc3-n3nccn3)[C@H](C)CS2)nc1Cl` [Example 13, (2R,5R)-2-{[(4-chloro-5-methylpyrimidin-2-yl)oxy]methyl}-5-methyl-4-{[2-(2H-1,2,3-triazol-2-yl)phenyl]carbonyl} thiomorpholine] gave a Ki of 7.4 nM.

In turn, `COc1cnc(OC[C@H]2CN(C(=O)c3ccccc3-n3nccn3)[C@H](C)CS2)nc1Cl` [Example 14, (2R,5R)-2-{[(4-chloro-5-methoxypyrimidin-2-yl)oxy]methyl}-5-methyl-4-{[2-(2H-1,2,3-triazol-2-yl)phenyl]carbonyl} thiomorpholine] registered a Ki of 155 nM. This Ki lies about 21-fold higher than the previous one.

With `C[C@@H]1C[S+]([O-])[C@@H](COc2ccc(F)cn2)CN1C(=O)c1ccccc1-n1nccn1` (stereo partly drawn) [Example 15, [(2R,5R)-2-{[(5-Fluoropyridin-2-yl)oxy]methyl}-5-methyl-1-oxidothiomorpholin-4-yl][2-(2H-1,2,3-triazol-2-yl)phenyl]methanone], the Ki is 170 nM.

For the molecule `C[C@@H]1CS[C@@H](CSc2ccccn2)CN1C(=O)c1ccccc1-n1nccn1` [Example 17, {(2R,5R)-5-Methyl-2-[(pyridine-2-ylsulfanyl)methyl]thiomorpholin-4-yl}[2-(2H-1,2,3-triazol-2-yl)phenyl]methanone], the Ki came to 98 nM.
